Earlier results as cited in US20170121368A1, “NOVEL COMPOUNDS COMPRISING A BOMBESIN DERIVATIVE, A PROCESS FOR THE PREPARATION THEREOF AND A NUCLEAR MOLECULAR IMAGING AGENT COMPRISING THE SAME” (priority 2015, published 2017).
No end group written: not given here.

System: human prostate cancer model
Conditions: 68Ga label, PET, human prostate cancer model in laboratory mice

For “GRP: Gastrin-releasing peptide labeled with 68Ga, literature PET study (VPLPAGGGTVLTKMYPRGNHWAVGHLM-NH2; ends and bridges not checked; also: 68Ga radiolabel; UniProt P07492 24-50, looked up)”, the uptake rate is given as 9.5 % ID/g.
